Measurements as given in paper PMC5638916, “CETSA quantitatively verifies in vivo target engagement of novel RIPK1 inhibitors in various biospecimens” (Scientific Reports, 2017).
Where two headings read alike, the source gives them in different places.

How the values were obtained:
HT-29 cells = assay: HT-29 necroptosis assay; assay type: cell-based, human; details: TNF-α + AT-406 + zVAD-FMK, 16–20 h, read-out: HT29-Necroptosis (IC50) (converted)
Experimental: The efficacies of RIP1 inhibitors were tested in vitro using HT-29 cells and L929 cells in a necroptosis assay. For HT-29 necroptosis assay, frozen HT-29 cells were thawed and diluted to 1.5 × 10^5 cells ml^−1 in McCoy’s 5 A Medium (16600108, Invitrogen) supplemented with 10% FBS, 100 U ml^−1 penicillin, and 100 μg ml^−1 streptomycin. A 20 μl aliquot of cell suspension was added to each well of a 384-assay plate and the cell culture plates were incubated for 16–20 h at 37 °C, 5% CO2. After overnight incubation, 2.5 μl of inhibitor dissolved in culture medium was added to each well of the cell plates, and then each well was treated with 2.5 μl of necroptosis inducer containing […], AT-406, and zVAD-FMK solution at final concentrations of 200 ng ml^−1, 10 μM, and 200 μM, respectively. Lidded plates were incubated for 16–20 h at 37 °C, 5% CO2. The next day, the supernatant of culture medium in each well was evaluated with CytoTox 96 Non-Radioactive Cytotoxicity Assay (G1780, Promega) according to the manufacturer’s instructions. The absorbance of the test plate was measured by 2103 EnVision Multilabel plate reader.
A, no necroptosis inducer; B, necroptosis inducer; X, necroptosis inducer plus test inhibitor. IC50 values were calculated with XLfit software (IDBS) using a four-parameter logistic curve.

L929 cells = assay: L929 necroptosis assay; assay type: cell-based; details: mouse TNFα + Z-VAD-FMK, 4 h
Experimental: For mouse L929 necroptosis assay, L929 cells were seeded to a 96-assay plate at 3.0 × 10^4 cells/120 μl in RPMI1640 medium (189–02025, WAKO) supplemented with 10% FBS, 100 U ml^−1 penicillin, and 100 μg ml^−1 streptomycin and the cells were cultured for 16–20 h at 37 °C, 5% CO2. After overnight incubation, the cells were treated with 15 μl of inhibitor containing media followed by the treatment with 15 μl of necroptosis inducer containing mouse TNFα and Z-VAD-FMK at final concentration of 20 ng ml^−1 and 20 μM, respectively, and incubated for 4 h. The cytotoxicity assay was conducted in the same way as the HT-29 necroptosis assay.

phospho (Ser-345)-MLKL = assay: Mouse phospho (Ser-345)-MLKL ELISA assay in L929 cells; assay type: cell-based; details: read-out: L929-pMLKL (IC50)
Experimental: (§1) estimated using a four-parameter logistic curve using GraphPad Prism 6.01 software (GraphPad Software Inc., La J olla, CA, USA). All of the data are shown as mean ± SEM.
Mouse phospho-MLKL ELISA assay. Phospho- MLKL in L929 cells were detected b y gen eral sandwich E LISA . L929 cell l ysat es stimulated with necroptosis inducer wer e pr epar ed in the same manner as for the in vitro necroptosis assay. The protein content of each cell l ysates was adjusted to 2 00–300 µg m l –1 to be normalised. Then 100 µl of normalised samples were added onto 96-well ELIS A pl ates (442404, Nunc) whi ch had been coated with 100 µl of anti-mouse MLKL Ab (1 µg ml –1 in PBS) overnight at 4°C, and incubated for 1h at room temperatur e. Nex t, plates were incub ated with 100 µl of anti- phospho- M LKL Ab (1 µg m l –1 in PBS supplemented with 1% BSA and 0.05% Tween20) for 1h at room temperature. Then, plates were reacted with 100 µl of anti-rabbit IgG HRP for 1h followed b y detection with 100 µl of TM B. After stopping the reaction b y adding 100 µl of 0.5 M H2SO4, plates wer e r ead on a spectrophotometer, Viento® (DS Pharma Biomedical) at A450.

[1] = system: CD11b+/Ly-6G- monocytes in mouse whole blood; assay: In vitro whole blood necroptosis assay (monocyte cell death); assay type: cell-based; details: for restoration of monocyte number/fraction after TSZ stimulation: FACS
Experimental: For in vitro whole blood assa y, 40 µl of peripheral blood were added to each well of the 96-well plate containing 12 µl of the appropriate concentration of inhibitors and 56 µl of RPMI1640 medium supplemented with 100 U ml –1 penicillin and 100 µ g ml–1 streptom ycin.
After 30 min inhibitor incubation, 12 µ l of mixture of necroptosis inducer including mouse TNF-α, AT -406, and zVAD-FMK was added to each well (final concentrations of 10 ng ml–1, 1 µM, and 20 µM, respectively), and then the cells were incubated for 16–20 h at 37°C with 5% CO2. After overnight incubation, cultured blood cells were mixed with Mouse BD Fc Block™ (553142, BD Biosciences) to block Fc receptor followed by the reaction with appropriate antibodies for 30 min on ice. Then, red blood cells were eliminated b y adding 1x lysing buffer (555899, BD Biosciences) and the cells were washed once with PBS supplemented with 1% FBS. Cells were anal ysed on an SORP LSRII Fortessa or a SORP FA C S C anto II flow c ytometer (BD Biosciences).
For ex vivo experiments, 40 µl of peripheral blood was mixed with 68 µl of RPMI1640 and resulting 108 µ l of diluted blood were added to each well of a 96- assa y pl ate with 12 µ l of mixture of necroptosis inducer mentioned above, and then the cells were incubated for 16–20 h at 37°C with 5% CO 2. The next day, the cells were collected and monocyte population was anal ysed b y flow cytometry following the procedure described above. Percentage inhibition was calculated from the signal intensity of FACS anal ysis b y
as §1

[2] = system: MLKL phosphorylation (p-MLKL); assay: Immunoblot of MLKL phosphorylation in isolated CD11b+Ly-6G- monocytes; assay type: cell-based, mouse; details: isolated CD11b+Ly-6G- monocyte cells
Experimental: reaction. […] An excitation filter of
Inhibition rate was ex pressed as percent
(%) inhibition of internal assay controls. Percentage inhibition was calculated from the signal […]
For concentration response
(IDBS) using a four-parameter logistic curve. The value of Ki (the inhibitory constant) was […]
In vitro and ex vivo whole blood necroptosis assay. For the isolation of mouse monoc yte […]
density centrifugation over Ficoll-Paque Plus (GE Healthcare). Then, CD11b+/ Ly -6G- […]
manufacturer ’s recommendation. […]
treatment (no stimulation, TSZ stimulation with DMSO control, and TSZ stimulation with […] Nec- 1). As a result, the monocyte and neutrophil fraction was decreased, in which fractions onl y the monocyte fraction was restored by the treatment of RIPK1 inhibitor. (b) Monocyte cell number was counted as CD11b+/Ly-6G- population by FACS staining for further confirmation, since CD11b+ fraction contains Ly-6G+ neutrophil population. The left-hand graph indicates the CD11b+Ly-6G- monocyt e population which was calculated from flow c ytometr y analysis. Representative plots are indicated in the right- hand panels in which CD11b+/ Ly-6G- population are shown as blue dots. Significant reduction in monocyte […]
25 treatment. (c) C D 1 1 b + Ly -6G- monoc yte cells were isolated as des cribed in Supplementary Fi g. 4b and anal ysed b y i mmunoblotting using the indicated antibodies. […]

human RIPK1 = target: T1, human RIPK1 (Homo sapiens, UniProt Q13546); assay: CETSA (Tagg curves and ITDRF) for human RIPK1 with HT-29 cells; assay type: cell-based; details: compound 30 min, 47 °C for 8 min denature, independent runs reported, read-out: human_ITDRF-CETSA (EC50)
T1 construct: ITDRF values of half-maximal stabilization of endogenous RIPK1; endogenous in cells; host or cells: HT-29
T1 sequence (Q13546 1-671): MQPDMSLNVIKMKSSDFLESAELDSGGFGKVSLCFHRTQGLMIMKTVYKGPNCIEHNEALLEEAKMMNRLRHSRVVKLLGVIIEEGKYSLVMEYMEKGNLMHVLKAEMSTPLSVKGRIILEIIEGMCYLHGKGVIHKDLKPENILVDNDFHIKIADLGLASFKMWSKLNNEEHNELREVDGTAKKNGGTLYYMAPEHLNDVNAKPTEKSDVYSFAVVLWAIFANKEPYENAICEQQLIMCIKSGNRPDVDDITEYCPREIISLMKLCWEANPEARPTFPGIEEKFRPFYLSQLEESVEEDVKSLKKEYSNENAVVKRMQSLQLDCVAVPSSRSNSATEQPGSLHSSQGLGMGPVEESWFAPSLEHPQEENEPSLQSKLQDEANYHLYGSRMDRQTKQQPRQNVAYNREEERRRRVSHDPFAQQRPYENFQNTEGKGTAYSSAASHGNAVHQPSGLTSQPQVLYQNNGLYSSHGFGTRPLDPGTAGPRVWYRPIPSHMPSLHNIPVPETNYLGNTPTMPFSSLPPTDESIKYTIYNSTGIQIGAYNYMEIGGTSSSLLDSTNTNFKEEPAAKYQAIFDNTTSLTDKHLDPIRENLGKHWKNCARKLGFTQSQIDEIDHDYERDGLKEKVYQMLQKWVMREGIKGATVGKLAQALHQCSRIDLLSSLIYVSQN
Experimental: HT-29 and L929 cells were harvested and suspended with culture media containing 10% FBS to a cell density of 2 × 10^6 cells ml^−1. Mouse peripheral blood was collected from C57BL/6 J (female, 10-week-old, Charles River Japan) and PBMCs were isolated by density centrifugation over Lympholyte®-Mammal Cell Separation Media, Mammalian (CL5110, Cedarlane Laboratories) according to manual instructions. Briefly, approximately 500 μl of blood was carefully overlaid on 250 μl of the separation media so as not to disturb the layer. The samples were immediately spun at 800 g for 20 min at room temperature. After centrifugation, the buffy coat containing the PBMCs was collected with almost 350 μl of plasma to a cell density of approximately 1 × 10^6 cells ml^−1. […]
For the in-cell thermal aggregation curve experiments, the compound solution was mixed with 9-fold volume of the suspension of cells at approximately 2 × 10^6 cells ml^−1 and the cells were incubated for 30 min at 37 °C, 5% CO2. […] Both whole and supernatant samples were analysed by sodium dodecyl sulfate polyacrylamide gel electrophoresis (SDS-PAGE) followed by Western blotting.
For the ITDRF in cell experiments, compounds were serially diluted to generate dose response curves. […] The heat-treated samples were treated as for the sample preparation and analysed with Western blotting following the procedure described above. […]

Row | Compound | IC50 (HT-29 cells) | IC50 (HT-29 cells; Homo sapiens) | IC50 (L929 cells) | IC50 (phospho (Ser-345)-MLKL) | IC50 ([1]; TNF-α + AT-406 + zVAD-FMK, 16–20 h, monocyte population by FACS) | restoration of monocyte number/fraction after TSZ stimulation [1] | inhibition of TSZ-induced MLKL phosphorylation (p-MLKL) [2] | EC50 (human RIPK1)
1 | CN1C(=O)[C@@H](N2CCc3c(nn(Cc4ccccc4)c3Cl)C2=O)COc2ccccc21 [Compound 18, (3S)-3-(2-benzyl-3-chloro-7-oxo-2,4,5,7-tetrahydro-6H-pyrazolo[3,4-c]pyridin-6-yl)-5-methyl-2,3-dihydro-1,5-benzoxazepin-4(5H)-one] | 1.5 nM |  |  |  |  |  |  | 
2 | Nc1ncnc2occ(-c3ccc(NC(=O)Nc4cc(C(F)(F)F)ccc4F)cc3)c12 [GSK-compound 27, reference compound] |  | 300 nM |  |  |  |  |  | 
3 | CNC(=O)c1ccc2c(c1)OC[C@H](N1CCc3c(nn(Cc4ccccc4)c3Cl)C1=O)C(=O)N2C [Compound 23] |  | 1.8 nM | 15 nM | 16 nM |  |  |  | 
4 | CN1C(=O)[C@@H](N2CCc3cn(Cc4ccccc4F)nc3C2=O)COc2cc(C#N)ccc21 [Compound 25] |  | 8.2 nM | 140 nM | 66 nM | 1200 nM | rescued | completely inhibited | 
5 | CN1C(=O)C(Cc2c[nH]c3ccccc23)NC1=S (centres unmarked) [Nec-1, Necrostatin-1, reference compound] |  | 610 nM |  |  |  | restored |  | 1100 nM
